Results from patent US11628186B2, “Method and composition for the reduction of viral replication, duration and spread of the COVID-19 and the flu” (priority 2017, dated 2023).

Tests used:
[1] = tested on: patients with lung diseases including COPD; assay: Comparison of inhaled salts of pyruvate, 5 ml of 0.5 mM solution (Table I)
[2] = tested on: patients with sinus & lung diseases including IPF and COPD; assay: Salts of pyruvate as 20 mM nasal sprays (Table IX)
Description: They never tested the individual salts for their ability to reduce inflammation or increase lung functions.

[3] = tested on: patients with Allergic Rhinitis other lung diseases; assay: Two-year log of 367 patients using the 20 mM sodium pyruvate nasal spray (Table XIII); assay type: in vivo, human; conditions: healthy patients with no underlying diseases; 20 mm in at least 0.9% sodium chloride
Method: Table XIII. 367 patients over a two-year period. Each patient was provided with a log page to record the effect of inhaled 20 mM sodium pyruvate surfactant enhancer formula. The FDA has recommended that we do a phase three clinical for Allergic Rhinitis for patients where steroids are counter indicated i.e. Children, pregnant women and diabetics. Percentage measurements in patients with Allergic Rhinitis other lung diseases. 20 mM sodium pyruvate formula in 0.9% saline […] was inhaled. Overall rating was 1-10 with 1 being the most negative and 10 being the best result. The increase in nasal and lung surfactants and nasal and lung nitric oxide inhibited the docking and adhesion of viruses in the patients listed below with especially in patients with diabetes or hypoxemia. All these viruses including coronavirus, the flu (influenza A or B) and rhinovirus were unable to dock on the ACE2 type receptor and reduced the rate, severity, duration and spread of the viruses.

[4] = tested on: Asthmatic and COPD patients; assay: Phase I/II clinical trials of sodium pyruvate in saline by inhalation; assay type: in vivo, human
[5] = Rat studies of irritation or toxicity; assay type: in vivo; conditions: 100× concentrations of the 5 mM sodium pyruvate
Description: Ethane and alcohol are lung irritants.

[6] = tested on: isolated perfused rat lungs; assay: Incorporation of [2-(14)C] labeled pyruvate into lung surfactants; conditions: inhalation studies, without calcium, phosphate and magnesium
[7] = tested on: subjects diagnosed with Severe COPD requiring supplemental oxygen; assay: SaO2 pilot study, single inhalation dose, blinded cross-over; assay type: in vivo, human
Method: A total of five (5) subjects diagnosed with Severe COPD (chronic bronchitis or emphysema) and requiring supplemental oxygen at rest were enrolled in this study at the University of Connecticut. Each subject received a single inhalation dose of either 0.5 mM sodium pyruvate, 5.0 mM sodium pyruvate or 0.9% sodium chloride at each Study Visit. The dose was administered in a blinded cross-over manner at 1 week intervals; such that all subjects received each study compound. Safety and therapeutic efficacy were evaluated by the following measurements: spirometry, expired breath NO level, SaO2, vital signs, and follow-up telephone interviews.
The study was conducted in four visits: a Screening Visit and Study Visits 1-3. The effect of the inhalation of a single dose of sodium pyruvate (0.5 mM and 5.0 mM) or placebo (0.9% sodium chloride) was studied in a double-blind protocol. The primary efficacy outcome objective was the SaO2 levels for all subjects. In addition, COPD subjects were evaluated by lung function (FEV1 and PEF) and expired breath NO levels obtained just prior to and then at 60 minutes and at 3 hours in the second study, following the administration of the particular sodium pyruvate dose.

[8] = tested on: patients with or without lung damage; assay: Controlled inhalation studies of 20 mM sodium pyruvate in saline; assay type: in vivo, human
Method: Sodium chloride is mainly used as nasal or lung moisturizer. […] They produce no change to FEV-1 or SaO2 measurements. It must be noted that there is a difference between people who have transient hypoxemia vs. one that has permanent hypoxemia. The patients respond differently to the inhalation of 20 mM sodium pyruvate in saline by itself without calcium, phosphate and magnesium. Sodium pyruvate formulations both given orally or by inhalation will increase SaO2 levels in people without lung injury to the alveoli structure especially the mitochondria that can synthesis the phospholipids needed for oxygen exchange and uptake. Transient hypoxemia is a self-correcting effect. It occurs in over exercising, mountain climbing etc. […] In patients with infections, i.e. CF and allergic Rhinitis, Nitric Oxide increase by over 400% over base line measurements with the use of the sodium pyruvate, calcium, phosphate and magnesium formula, needed to fight infections and lung cancer (see table IV).

[9] = tested on: patients with lung diseases including COPD; assay: Comparison of inhaled salts of pyruvate, 5 ml of 5 mM solution (Table II)
[10] = 5 ml of 0.5 mM solution, inhaled
[11] = 20 mM (0.22%) nasal spray in 0.9% sodium chloride
[12] = 5 ml of the 0.5 mM solution in saline

CC(=O)C(=O)[O-].[Na+] [Sodium, sodium pyruvate]
Increased in FEV-1% lung function ([1]; 5 ml of 0.5 mM solution in physiological saline, inhaled): 13.0% | Irritation [1, 10]: none | Percentage Increase in SaO2 over baseline [1, 10]: 0.5% | Percentage decrease or increase of Nitric Oxide over baseline [1, 10]: −19.0% | Relief of congestion, coughing and lung tightness [1, 10]: 5 | Overall Rating 1-10 ([1]; 5 ml of 0.5 mM solution, 1 most negative, 10 best): 8 | FEV1 ([1]; 5 mls of a 0.5 mM pyruvate inhalation solution in COPD and asthmatic patients): ≥ 12% | Increased in FEV-1% [2, 11]: 12.0% | Irritation [2, 11]: none | Percentage Increase in SaO2 over baseline [2, 11]: 2% | Percentage increase of Nitric Oxide over baseline [2, 11]: 19.0% | Relief of congestion, coughing and lung tightness [2, 11]: 6 | Overall Rating 1-10 ([2]; 20 mM (0.22%) nasal spray, 1 most negative, 10 best): 7 | amount of flu or colds reduced [3]: 52% | duration of the infection symptoms in days reduced [3]: 56% | increasing FEV1 values [4, 12]: over 12% | reducing nitric oxide [4, 12]: 19.2% | FEV1 values ([4]; higher concentrations 1.5 mM or 5.0 mM in saline): did not increase FEV1 values | increase nitric oxide levels ([4]; solutions of 1.5 to 5 mM): 19% | irritation or toxicity [5]: not to have any irritation or toxicity | incorporation into synthesized phospholipids [6]: not incorporated into synthesized phospholipids | Adverse Events ([7]; 0.5 mM and 5.0 mM single dose): no Adverse Events | Nitric oxide levels increased ([7]; 5 mM inhaled solution): 19% | change in the FEV1 or SaO2 compared to pre inhalation values ([7]; single inhalation of 0.5 mM or 5.0 mM in saline): No significant change | SaO2 levels ([8]; Patients with lung damage, like in smokers, 20 mM without calcium, phosphate and magnesium): did not show an increase SaO2 levels | increase of SaO2, average ([8]; patients with no lung injuries or disease, after exercising, 20 mM in saline): 3% | Increased in FEV-1% ([9]; 5 ml of 5 mM solution in saline, inhaled): 2.0% | Irritation ([9]; 5 ml of 5 mM solution, inhaled): none | Percentage Increase in SaO2 over baseline ([9]; 5 ml of 5 mM solution, inhaled): 1% | Percentage increase of Nitric Oxide over baseline ([9]; 5 ml of 5 mM solution, inhaled): 19.0% | Relief of congestion, coughing and lung tightness ([9]; 5 ml of 5 mM solution, inhaled): 5 | Overall Rating 1-10 ([9]; 5 ml of 5 mM solution, 1 most negative, 10 best): 8
